# Data reported in patent US20080096947A1, “Parenteral Forms Of Administration Of Imexon And Method For The Production Thereof” (Heidelberg Pharma AG, priority 2004, published 2008).
# Entries after “also recorded” stand apart in the source; their conditions may differ.
# Key:
# [1] = Stability of imexon in organic solvents; type: physicochemical
# [2] = background statement; therapeutically effective dosages only intravenously; cited from earlier work
# [3] = Stability of imexon in aqueous solution; type: physicochemical; settings: aziridine ring opens, isomerises to water-insoluble products
# [4] = Solubility of imexon in water; type: physicochemical
structure (smiles),measurement,setting,value
"N=C1NC(=O)N2CC12 (centres unmarked) [Imexon, 4-imino-1,3-diazabicyclo-(3.1.0)-hexane-2-one]",stability of solution in DMSO,[1]; DMSO,stable solution of imexon can be produced
same,stability in organic solvents,"[1]; some organic solvents, in contrast to water",remains stable over a prolonged period
same,bioavailability,[2],low bioavailability
same,stability in water / aqueous solutions,[3],not stable; also recorded: decomposes in aqueous solutions after a short period
same,solubility in water,[4],highly soluble in water
